From patent US20040235900A1, “Antimicrobial oxazolifinones with improved pharmacokinetic profile and safety advantages” (priority 2002, published 2004)

What was measured:
[1] = Pharmacokinetic study, single oral dose in beagle dog; type: in vivo; settings: serum, single oral dose 5 mg/kg p.o., Compound No. 4 and linezolid in 5% Tween, other compounds in cyclodextrin; for AUC(0-t): read-out: AUC (0-24 hr); for concentration at 12 hr: read-out: C-12 hr
Procedure: Oral (5 mg/kg) and intravenous (5 mg/kg bolus) pharmacokinetic studies were done in dog. Blood samples were collected at time points of 0, 0.08 (not for oral), 0.25, 0.50, 1.0, 1.5, 2.0, 3.0, 4.0, 5.0, 6.0, 8.0, 10.0, 12.0 and 24.0 hours. To facilitate i.v. dosing and collection of blood samples, the dogs were implanted with cannula in cephalic vein. Serum obtained from blood samples was used for HPLC-based analysis.
Serum samples were extracted by solid phase extraction technique using Water's OASIS HLB cartridges. An HPLC-Diode array detection system was used for analysis. Prepared samples were chromatographed on a YMC-AM reversed phase column (150×4.6 mm ID; 5 μm) using an isocratic mobile phase acetate buffer (50 mmol ammonium acetate pH 6.6) acetonitrile, 66:34% v/v (for a representative compound of the invention, 68:32% v/v for compound Nos. 30, 3, 7 and 11 of U.S. Pat. No. 5,668,286, and 75:25% v/v for linezolid) at a flow rate of 1 ml/min, measured at λmax 254 nm. Independently prepared analytical standards and quality control samples were analyzed with each set of unknown samples.
The pharmacokinetics of a representative compound of the invention following single oral dose administration of the compound in beagle dog is shown in Table 2.

[2] = Myelosuppressive potential: spleen and thymus relative weights, 14-day oral dosing; type: in vivo, Wistar rats
Source text: Compound No.30 of U.S. Pat. […] Vehicle treated controls were maintained using identical experimental conditions. The treated as well as control rats were sacrificed 24 hr after the last dose. One parameter measured was the spleen to body weight ratio and thymus to body weight ratio in treated versus control animals. The spleen and thymus were trimmed free of fat and other contiguous organs/tissues and were weighed in an analytical balance (Sartorious BP 210). The spleen to terminal body weight ratio and the thymus to terminal body weights ratio was calculated to provide the respective relative weights. The ratio value of the respective relative weight of a treated animal versus the relative weight of a control animal is provided in Table 4. The myelosuppressive potential of a compound is inversely proportional to the ratio value. […] Values in each of the first two columns above represent ratio of relative weight (calculated organ to body weight ratio) of spleen or thymus in drug treated animals v/s control animals. […] The “[…]” column provides ratio of percentage reticulocytes in treated v/s percentage reticulocytes in control rats.

[3] = test system: MRSA 32; assay: Murine assay procedure (systemic MRSA 32 infection, oral treatment); type: in vivo, swiss mice; settings: Staphylococcus aureus; oral administration, doses 1 hr and 4 hrs after infection; MRSA 32 infected mice; percentage survival on Day 7
Procedure: Oxazolidinone new chemical entities (NCEs) were evaluated for their in vivo efficacy in a murine infection caused by multi-drug resistant, methicillin resistant Staphylococcus aureus strain, referred to as MRSA 32, a clinical isolate obtained from a hospitalised patient. The procedure used for the murine assay is as follows:
Four weeks old swiss mice of 18-22 gm body weight were infected with MRSA 32 strain suspended in 5% Hog gastric Mucin. The infecting dose of bacteria was set at 1-2×10^8 CFU/animal. The infecting dose was administered in 0.5 ml volume injected into peritonial cavity of mice. The treatment with oxazolidinone NCEs was started one hour after infection by administering 100-200 μl of the suspensions of oxazolidinone compounds in 5% Tween 80 by oral gavage. A repeat dose was similarly administered 3 hrs later. Each oxazolidinone NCE was tested at 2-3 different dosages in the range of 2.5 mg/kg to 20 mg/kg. In each dose group 6 mice were included. As an infection control group 12 mice were infected with MRSA 32 strain without giving any treatment. Normally untreated infected mice die within 24 hrs. due to the systemic spread of infection through out the animal body. […] For compounds affording protection of MRSA infected mice, ED50 dosages were calculated on the basis of percentage survival on Day 7 after infection.
The in-vivo ED50 values using the test compounds were determined essentially by the method as described in PCT WO 95/25106, U.S. Pat. No. 5,668,286 and EP 0 750 618 B1.

[4] = Wistar rats, oral, 14 consecutive days, 50 mg/kg per day (LNZ 2×25 mg/kg per day), ratio less than 0.75 indicates myelosuppressive potential

Structure (SMILES)	half-life [1] [h]	AUC(0-t) [1] [ng·h/mL]	Cmax [1] [ng/mL]	concentration at 12 hr [1] [ng/mL]	myelosuppressive potential (in words) ([2]; rat, in vivo)	ED50 [3] [mg/kg]	Relative Weights Ratio Spleen (spleen weight/body weight of treated animal versus control animal) [2, 4]	Relative Weights Ratio Thymus (thymus weight/body weight of treated animal versus control animal) [2, 4]
CC(=O)NC[C@H]1CN(c2ccc(N3CCC(CC#N)CC3)c(F)c2)C(=O)O1 [Compound 4, (S)-N-{3-[4-(4-cyanomethyl-piperidin-1-yl)-3-fluoro-phenyl]-2-oxo-oxazolidin-5-ylmethyl}-acetamide]	10.8 ± 2.45	71560 ± 250	5660 ± 1490	2840 ± 170	no or lower myelosuppressive potential	2.5 to 5	–	–
CC(=O)NC[C@H]1CN(c2ccc(N3CCOCC3)c(F)c2)C(=O)O1 [Linezolid]	2.42 ± 0.17	22800 ± 2170	5700 ± 690	0	–	–	0.46	0.46
